This is an account of results in US5432160A, “Nutrient composition” (Kyowa Hakko Kohyo Co., Ltd., priority 1993, dated 1995).

Peptide text beside a SMILES is read from it.

Common to all, as to format: physicochemical
The nature of data set [1]: Solubility: maximum amount dissolved in 1 liter of water. To be noted: 25° C. As to the method:
Each of β-alanyl-L-glutamine, L-alanyl-L-glutamine (control) and L-glutamine (control) was dissolved into 1 liter of water (25° C.). Each of their maximum amounts dissolved in the water was determined.

The nature of data set [2]: Heat stability: residual rate after heat sterilization in an autoclave. To be noted: aqueous 10 mM solution, pH 6.5, autoclave 120° C. As to the method: Each of aqueous 10 mM solutions of β-alanyl-L-glutamine, L-alanyl-L-glutamine (control) and L-glutamine (control) adjusted at pH 6.5 with sodium hydroxide was heated in an autoclave at 120° C. for a period of 20 minutes or 120 minutes. The residual rate of each of the compounds after heating was determined.

Assay in data set [3]: as above
Particulars: aqueous 10 mM solution, pH 6.5, autoclave 120° C., 20 minutes.

Turning to `C[C@H](N)C(=O)N[C@@H](CCC(N)=O)C(=O)O` [L-Alanyl-L-glutamine, L-alanyl-L-glutamine] (H-Ala-Gln-OH), the “Amount Dissolved in 1 liter of Water” value in data set [1] was determined as 599 g. In data set [2], the “Residual Rate after Heat Sterilization 20 min.” value is 98% and the “Residual Rate after Heat Sterilization 120 min.” value was determined as 91%. Also, the “Residual Rate after Heat Sterilization 20 min.” value in data set [2] (listed as L-alanyl-L-glutamine) is listed as “partly decomposed”.

In the case of `NC(=O)CC[C@H](N)C(=O)O` [L-Glutamine, L-glutamine], the “Share decomposed after heating” value in data set [3] is on record as “about 90%”. The “Amount Dissolved in 1 liter of Water” value in data set [1] was 43 g. For the same molecule, in data set [2], the “Residual Rate after Heat Sterilization 20 min.” value amounted to 9% and the “Residual Rate after Heat Sterilization 120 min.” value amounted to 0%. Also, the “Residual Rate after Heat Sterilization 120 min.” value in data set [2] (listed as L-glutamine) was “decomposed completely”.

Consider `NCCC(=O)N[C@@H](CCC(N)=O)C(=O)O` [β-Alanyl-L-glutamine, β-alanyl-L-glutamine], for which the figures for the “Amount Dissolved in 1 liter of Water” value in data set [1] and in data set [1] (listed as β-alanyl-L-glutamine) were 952 g and “highest solubility”, respectively. For the same molecule, the “Residual Rate after Heat Sterilization 20 min.” value in data set [2] is 100%; in data set [2] (listed as β-alanyl-L-glutamine), “remained entirely without being decomposed”. In addition, in data set [2], the “Residual Rate after Heat Sterilization 120 min.” value was determined as 99%.
